Data reported in ChEMBL document CHEMBL1667849, “Identification of small molecular inhibitors for Ero1p by structure-based virtual screening” (Bioorg Med Chem Lett, 2011).

Tests used:
ERO1-like protein alpha = target: T1, ERO1-like protein alpha (Homo sapiens, UniProt Q96HE7); assay: Inhibition of human Ero1-Lalpha
T1 sequence (Q96HE7 whole entry): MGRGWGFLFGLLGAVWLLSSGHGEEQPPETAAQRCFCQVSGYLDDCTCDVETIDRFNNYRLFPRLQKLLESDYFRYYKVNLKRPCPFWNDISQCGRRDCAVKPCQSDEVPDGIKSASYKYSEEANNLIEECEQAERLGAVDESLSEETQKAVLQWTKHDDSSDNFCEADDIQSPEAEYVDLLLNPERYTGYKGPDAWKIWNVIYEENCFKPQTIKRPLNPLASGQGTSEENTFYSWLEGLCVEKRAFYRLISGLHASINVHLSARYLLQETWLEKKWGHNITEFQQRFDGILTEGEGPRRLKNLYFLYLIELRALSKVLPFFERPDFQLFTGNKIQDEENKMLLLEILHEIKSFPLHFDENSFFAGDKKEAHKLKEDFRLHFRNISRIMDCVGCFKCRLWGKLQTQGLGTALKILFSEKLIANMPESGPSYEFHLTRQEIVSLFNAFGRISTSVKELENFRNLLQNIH

[1] = Inhibition of yeast Ero1p by fluorescence assay; set-up: species or system Saccharomyces cerevisiae

`O=C(Cn1cnc([N+](=O)[O-])c1[N+](=O)[O-])Nc1cc(Oc2ccccc2)cc([N+](=O)[O-])c1` gave an IC50 (ERO1-like protein alpha) of 10 µM and an IC50 [1] greater than 300 µM.

For `CCOc1cc(/C=C2\C(=O)NC(=O)N(c3ccc(C)cc3)C2=O)ccc1OCCOc1cccc2ccccc12`, the IC50 (ERO1-like protein alpha) was 17 µM.

`O=C(Nc1cc2c(cc1C(=O)O)C(=O)c1ccccc1C2=O)c1ccc([N+](=O)[O-])cc1` gave an IC50 (ERO1-like protein alpha) of 37 µM.

`COc1ccc(/C=C2/C(=O)N(c3ccc(Cl)cc3)N=C2C(F)(F)F)cc1OC` gave an IC50 (ERO1-like protein alpha) of 8 µM and an IC50 [1] of 73 µM.

In the case of `O=C1NC(=O)N(c2ccc(Cl)cc2)C(=O)/C1=C/Nc1cccc(O)c1`, the IC50 (ERO1-like protein alpha) is reported as 80 µM.

Work on `O=C(N/N=C1\C(=O)N(Cc2cccc([N+](=O)[O-])c2)c2ccccc21)c1cc2ccccc2cc1O` yielded an IC50 (ERO1-like protein alpha) of 108 µM.

For `O=C(Nc1sc(-c2ccccc2)cc1C(=O)O)c1ccc(Br)cc1`, the IC50 (ERO1-like protein alpha) was 67 µM.

In the case of `O=C1NC(=O)N(c2ccc(Cl)cc2)C(=O)/C1=C/c1ccc(O)c(O)c1`, the IC50 (ERO1-like protein alpha) is reported as 11 µM.

For `COc1cc(/C=C2\C(=O)NN(c3ccc(Br)cc3)C2=O)cc(Br)c1OC(C)=O`, the IC50 (ERO1-like protein alpha) was 3 µM and the IC50 [1] was 31 µM.

For `COc1ccc(N2C(=O)NC(=O)/C(=C\c3ccc(OCCOc4cccc(OC)c4)c(OC)c3)C2=O)cc1`, the IC50 (ERO1-like protein alpha) was 24 µM.

Compound `COc1cc(/C=C2/N=C(c3ccc4ccccc4c3)OC2=O)ccc1OC(C)=O` has an IC50 (ERO1-like protein alpha) of 54 µM.

For `COc1cc(Cl)cc(/C=C2\C(=O)NN(c3ccc(F)c(Cl)c3)C2=O)c1O`, the IC50 (ERO1-like protein alpha) was 38 µM.
